From publication PMC10175918 (Communications Biology, 2023) come the findings set out here.

Common to all, as to experiment: TGFα-shedding assay-based GPCR screening with chimeric Gα subunit proteins
Common to all, as to type: cell-based

Experiment [1] addresses T1, 348 GPCRs (Homo sapiens, UniProt P47901).
T1 construct: expressed in transfected cells; host or cells: HEK293A
T1 sequence (P47901 1-424): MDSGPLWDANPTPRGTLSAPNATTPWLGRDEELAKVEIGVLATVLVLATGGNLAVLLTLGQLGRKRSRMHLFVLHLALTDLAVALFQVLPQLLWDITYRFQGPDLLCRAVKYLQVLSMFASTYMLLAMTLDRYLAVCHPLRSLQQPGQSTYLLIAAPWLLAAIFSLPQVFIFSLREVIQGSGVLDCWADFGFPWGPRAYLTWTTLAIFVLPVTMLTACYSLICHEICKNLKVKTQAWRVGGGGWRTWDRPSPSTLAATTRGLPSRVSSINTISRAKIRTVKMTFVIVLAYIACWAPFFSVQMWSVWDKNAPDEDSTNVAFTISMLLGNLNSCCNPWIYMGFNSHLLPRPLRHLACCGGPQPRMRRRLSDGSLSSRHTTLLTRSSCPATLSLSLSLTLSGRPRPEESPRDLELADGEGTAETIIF

The target of experiment [2] is T2, 348 GPCRs (Homo sapiens, UniProt Q8IZF7).
T2 construct: expressed in transfected cells; host or cells: HEK293A
T2 sequence (Q8IZF7 1-708): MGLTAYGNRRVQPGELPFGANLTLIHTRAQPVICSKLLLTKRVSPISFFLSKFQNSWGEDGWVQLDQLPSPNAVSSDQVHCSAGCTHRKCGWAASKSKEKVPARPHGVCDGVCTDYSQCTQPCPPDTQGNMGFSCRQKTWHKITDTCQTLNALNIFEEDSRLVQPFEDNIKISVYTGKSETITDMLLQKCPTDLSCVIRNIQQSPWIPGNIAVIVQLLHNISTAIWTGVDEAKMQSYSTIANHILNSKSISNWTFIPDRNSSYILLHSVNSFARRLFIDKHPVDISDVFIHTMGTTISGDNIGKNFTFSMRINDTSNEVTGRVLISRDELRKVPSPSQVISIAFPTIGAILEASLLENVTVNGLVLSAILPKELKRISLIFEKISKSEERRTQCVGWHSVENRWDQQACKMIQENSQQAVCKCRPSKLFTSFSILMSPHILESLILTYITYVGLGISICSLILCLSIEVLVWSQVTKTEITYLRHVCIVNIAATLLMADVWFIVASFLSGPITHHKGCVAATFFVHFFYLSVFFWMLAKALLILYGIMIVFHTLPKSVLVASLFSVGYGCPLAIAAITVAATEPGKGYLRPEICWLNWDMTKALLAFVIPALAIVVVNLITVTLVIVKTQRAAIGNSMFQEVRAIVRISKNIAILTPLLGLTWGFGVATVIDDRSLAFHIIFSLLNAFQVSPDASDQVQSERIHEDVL

In experiment [3] the target is T3, 348 GPCRs (Homo sapiens, UniProt O43614).
T3 construct: expressed in transfected cells; host or cells: HEK293A
T3 sequence (O43614 1-444): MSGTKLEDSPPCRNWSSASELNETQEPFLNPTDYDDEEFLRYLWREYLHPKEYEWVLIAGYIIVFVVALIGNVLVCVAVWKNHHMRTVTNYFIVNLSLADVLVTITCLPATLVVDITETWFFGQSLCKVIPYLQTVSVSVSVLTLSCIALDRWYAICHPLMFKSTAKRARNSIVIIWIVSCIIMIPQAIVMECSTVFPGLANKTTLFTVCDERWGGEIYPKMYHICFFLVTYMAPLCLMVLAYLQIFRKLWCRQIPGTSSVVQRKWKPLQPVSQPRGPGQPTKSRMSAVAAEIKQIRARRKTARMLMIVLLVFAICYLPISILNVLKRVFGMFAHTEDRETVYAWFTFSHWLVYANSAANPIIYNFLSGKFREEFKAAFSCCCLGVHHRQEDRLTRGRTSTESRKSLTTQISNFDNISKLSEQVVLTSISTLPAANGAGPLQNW
As to conditions: HCRTR2 (hypocretin (orexin) receptor 2); 10µM, Favipiravir 100μM.

Experiment [4] addresses T4, 348 GPCRs (Homo sapiens, UniProt P23945).
T4 construct: expressed in transfected cells; host or cells: HEK293A
T4 sequence (P23945 18-695): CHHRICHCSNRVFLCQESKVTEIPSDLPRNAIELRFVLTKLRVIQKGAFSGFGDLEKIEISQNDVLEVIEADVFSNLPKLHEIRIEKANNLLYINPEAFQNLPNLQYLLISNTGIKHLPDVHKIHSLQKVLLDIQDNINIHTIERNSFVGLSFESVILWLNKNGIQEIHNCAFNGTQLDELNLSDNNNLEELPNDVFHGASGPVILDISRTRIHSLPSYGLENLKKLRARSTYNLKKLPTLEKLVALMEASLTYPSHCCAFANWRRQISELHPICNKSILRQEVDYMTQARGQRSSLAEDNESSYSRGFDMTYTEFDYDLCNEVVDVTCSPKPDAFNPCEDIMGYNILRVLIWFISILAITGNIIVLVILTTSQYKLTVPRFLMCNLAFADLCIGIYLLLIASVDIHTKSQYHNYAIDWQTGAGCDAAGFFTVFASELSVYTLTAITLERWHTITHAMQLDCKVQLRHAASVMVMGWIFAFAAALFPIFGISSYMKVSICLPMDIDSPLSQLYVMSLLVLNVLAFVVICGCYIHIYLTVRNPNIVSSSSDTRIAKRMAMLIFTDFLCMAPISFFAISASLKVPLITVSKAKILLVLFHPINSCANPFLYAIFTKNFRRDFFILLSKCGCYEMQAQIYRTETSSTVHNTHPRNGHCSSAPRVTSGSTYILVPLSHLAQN
As to conditions: 10µM, Favipiravir 100μM.

Experiment [5] addresses T5, 348 GPCRs (Homo sapiens, UniProt Q16570).
T5 construct: expressed in transfected cells; host or cells: HEK293A
T5 sequence (Q16570 1-336): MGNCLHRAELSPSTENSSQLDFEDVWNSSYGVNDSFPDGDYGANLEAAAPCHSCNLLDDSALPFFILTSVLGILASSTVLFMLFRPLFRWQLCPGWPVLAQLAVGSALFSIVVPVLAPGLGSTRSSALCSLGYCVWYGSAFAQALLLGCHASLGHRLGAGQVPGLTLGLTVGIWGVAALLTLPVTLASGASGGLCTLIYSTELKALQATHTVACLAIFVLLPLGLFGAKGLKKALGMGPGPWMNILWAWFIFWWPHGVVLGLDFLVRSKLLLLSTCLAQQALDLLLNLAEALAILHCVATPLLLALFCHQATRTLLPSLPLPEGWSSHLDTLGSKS
As to conditions: 10µM, Favipiravir 100μM.

The mark [6] stands for this setting: GPCR V1B (arginine vasopressin receptor 1B), read-out: % GPCR activation compared to TPA.
[7] abbreviates: GPCR GPR111 (G-protein-coupled receptor 111 (ADGRF2)), read-out: % GPCR activation compared to TPA.
Where [8] appears, read: FSHR (follicle stimulating hormone receptor), read-out: % GPCR activation compared to TPA.
[9] abbreviates: DARC (Duffy blood group, chemokine receptor), read-out: % GPCR activation compared to TPA.
Setting [10] is: read-out: % GPCR activation compared to TPA, GPCR V1B (arginine vasopressin receptor 1B).
Setting [11] is: read-out: % GPCR activation compared to TPA, GPCR GPR111 (G-protein-coupled receptor 111 (ADGRF2)).
[12] abbreviates: read-out: % GPCR activation compared to TPA, FSHR (follicle stimulating hormone receptor).
Setting [13] is: read-out: % GPCR activation compared to TPA, DARC (Duffy blood group, chemokine receptor).

Structures are written as SMILES. Like-named read-outs stand apart in the source and are kept apart here.

As for `CC(C)C(=O)OC[C@H]1O[C@@H](n2ccc(NO)nc2=O)[C@H](O)[C@@H]1O` [molnupiravir], the activation at 10 µM at 348 GPCRs [1] (setting [6]) was -0.66%; at 348 GPCRs [2] (setting [7]) it was 0.307%. Further, at 348 GPCRs [3], the “% GPCR activation compared to TPA” value was 0.4774%. Moreover, the activation at 100 µM at 348 GPCRs [4] (setting [8]) amounted to 0.229%; at 348 GPCRs [5] (setting [9]) it was 0.223%.
For the compound `CC(C)OC(=O)[C@H](C)N[P@](=O)(OC[C@H]1O[C@@H](n2ccc(=O)[nH]c2=O)[C@](C)(F)[C@@H]1O)Oc1ccccc1` [sofosbuvir], the activation at 10 µM was -0.149% on 348 GPCRs [1] (setting [10]) and -0.382% at 348 GPCRs [2] (setting [11]). In addition, the “% GPCR activation compared to TPA” value at 348 GPCRs [3] is given as -1.966%. The results for the activation at 100 µM on 348 GPCRs [4] (setting [12]) and at 348 GPCRs [5] (setting [13]) were 2.02% and -1.56%, respectively.
`N#C[C@@]1(c2ccc3c(N)ncnn23)O[C@H](CO)[C@@H](O)[C@H]1O` [GS441524]: the activation at 10 µM on 348 GPCRs [1] (setting [6]) is 0.627%; at 348 GPCRs [2] (setting [7]) it was -2.52%. In addition, the “% GPCR activation compared to TPA” value on 348 GPCRs [3] was 2.174%. Besides, the activation at 100 µM on 348 GPCRs [4] (setting [8]) came to 1.25%; at 348 GPCRs [5] (setting [9]), 1.78%.
Turning to `NC(=O)c1nc(F)cnc1O` [favipiravir, 6-fluoro-3-hydroxy-2-pyrazinecarboxamide], the activation at 100 µM on 348 GPCRs [1] (GPCR V1B (arginine vasopressin receptor 1B), 100μM, read-out: % GPCR activation compared to TPA) was 1.12%; on 348 GPCRs [2] (GPCR GPR111 (G-protein-coupled receptor 111 (ADGRF2)), 100μM, read-out: % GPCR activation compared to TPA), -1.94%; on 348 GPCRs [4] (setting [8]) it was 3.61%; on 348 GPCRs [5] (setting [9]), 1.68%. For the same compound, on 348 GPCRs [3], the “% GPCR activation compared to TPA” value came to 0.7248%.
Take `CCC(CC)COC(=O)[C@H](C)N[P@](=O)(OC[C@H]1O[C@@](C#N)(c2ccc3c(N)ncnn23)[C@H](O)[C@@H]1O)Oc1ccccc1` [remdesivir]: the activation at 10 µM is 1.47% on 348 GPCRs [1] (setting [10]) and -1.09% at 348 GPCRs [2] (setting [11]). Besides, the “% GPCR activation compared to TPA” value on 348 GPCRs [3] is reported as 0.0002648%. For the same compound, the activation at 100 µM was 2.23% at 348 GPCRs [4] (setting [12]) and 5.17% on 348 GPCRs [5] (setting [13]).
